Source: ChEMBL document CHEMBL1127115, “Synthesis and antihypertensive activity of KC-399, a benzopyran K+ channel opener with long duration of action and less tachycardia” (Bioorg Med Chem Lett, 1993)

Assays:
Type in all cases: functional
Rattus norvegicus [1] = organism: Rattus norvegicus; test: Tested for effective concentration required to relax contraction induced by 30 mM KCl in rat aorta
Rattus norvegicus [2] = test: Tested for antihypertensive activity, duration of action at the dose of 0.03 mg/Kg was determined; ranges from 7-8h
Rattus norvegicus [3] = test: Antihypertensive activity in spontaneously hypertensive rats (SHR) expressed as dose required to produce fall in mean blood pressure (MBP) by peroral administration
Rattus norvegicus [4] = test: Heart rate was determined in conscious male spontaneously hypertensive rats (SHR) at a dose of 0.03 mg/Kg dose
Rattus norvegicus [5] = test: Mean blood pressure was determined in conscious male spontaneously hypertensive rats (SHR) at a dose of 0.03 mg/Kg
Rattus norvegicus [6] = test: Tested for antihypertensive activity in spontaneously hypertensive rats (SHR) as dose required to produce fall in mean blood pressure (MBP) by peroral administration
Rattus norvegicus [7] = test: Heart rate was determined in conscious male spontaneously hypertensive rats (SHR) at a dose of 0.01 mg/Kg dose
Rattus norvegicus [8] = test: Mean blood pressure was determined in conscious male spontaneously hypertensive rats (SHR) at a dose of 0.01 mg/Kg
Rattus norvegicus [9] = test: Heart rate was determined in conscious male spontaneously hypertensive rats (SHR) at a dose of 0.3 mg/Kg
Rattus norvegicus [10] = test: Mean blood pressure was determined in conscious male SHR at a dose of 0.1 mg/Kg
Rattus norvegicus [11] = test: Mean blood pressure was determined in conscious male spontaneously hypertensive rats (SHR) at a dose of 0.3 mg/Kg
Rattus norvegicus [12] = test: Heart rate was determined in conscious male spontaneously hypertensive rats (SHR) at a dose of 0.1 mg/Kg

N#CCC/N=C(\S)C1=CC(CF)(CF)Oc2ccc([N+](=O)[O-])cc21
EC50 (Rattus norvegicus [1]): 0.3 nM | Duration of action (Rattus norvegicus [2]): 7 h | Dose (Rattus norvegicus [3]): 0.03 mg/kg | Heart rate (Rattus norvegicus [4]): 323 beats min-1 | Blood pressure (Rattus norvegicus [5]): 155 mmHg | Dose (Rattus norvegicus [6]): 0.01 mg/kg | Heart rate (Rattus norvegicus [7]): 310 beats min-1 | Blood pressure (Rattus norvegicus [8]): 156 mmHg

CC1(C)Oc2ccc(C#N)cc2[C@@H](N2CCCC2=O)[C@@H]1O [LEVCROMAKALIM]
Heart rate (Rattus norvegicus [9]): 313 beats min-1 | Blood pressure (Rattus norvegicus [10]): 146 mmHg | Duration of action (Rattus norvegicus [2]): 7 h | Dose (Rattus norvegicus [3]): 0.3 mg/kg | Dose (Rattus norvegicus [6]): 0.1 mg/kg | Blood pressure (Rattus norvegicus [11]): 153 mmHg | Heart rate (Rattus norvegicus [12]): 318 beats min-1

CC1(C)Oc2ccc(C#N)cc2C(N2CCCC2=O)C1O (stereo unspecified) [CROMAKALIM]
EC50 (Rattus norvegicus [1]): 150 nM
